Assay results reported in patent US20050239656A1, “Pyridine compounds or salts thereof and herbicides containing the same” (priority 2002, published 2005).

System: rice (var. Nihonbare)
Assay: Test Example 3: paddy pot test, transplanted rice
Assay type: in vivo, Oryza sativa L.
Conditions: active ingredient 250 g/ha, applied 4th day after transplantation, visually observed 21st day after application, 0 = non-treated, 100 = complete kill
Text: (§1) Paddy field soil was put into a 1/1,000,000 ha pot, and seed of barnyardgrass and japanese bulrush were sown and slightly covered with soil. Then, the pot was left to stand still in a greenhouse in a state where the depth of flooding water was from 0.5 to 1 cm, and one day or two days later, tubers of japanese ribbon wapato were planted. Thereafter, the depth of flooding water was maintained at a level of from 3 to 4 cm, and when barnyardgrass and japanese bulrush reached a 0.5 leaf stage and japanese ribbon wapato reached a primary leaf stage, an aqueous diluted solution of a wettable powder or emulsifiable concentrate having the compound of the present invention formulated in accordance with a usual formulation method, was uniformly applied under submerged conditions by a pipette so that the dose of the active ingredient would be at a predetermined level. On the other hand, paddy field soil was put into a 1/1,000,000 ha pot and puddled and leveled, and the depth of flooding water was from 3 to 4 cm. Next day, rice (var. Nihonbare) of 2 leaf stage was transplanted in a depth of 3 cm. On the 4th day after the transplantation, the compound of the present invention was applied in the same manner as described above. On the 14 days after the application of the herbicide, the growth of barnyard grass, japanese burlrush and japanese ribbon wapato was visually observed and on the 21st day after the application of the herbicide, the growth of rice was visually observed, and the herbicidal effects were evaluated by the growth-controlling degrees (%) ranging from 0 (equivalent to the non-treated plot) to 100 (complete kill), whereby the results shown in Table 5 were obtained.

| SMILES | Growth controlling degree (%) Rice |
| --- | --- |
| CC(C)C(c1cnccc1C(F)(F)F)N(C)C(=O)Cc1ccc(C(F)(F)F)cc1F (stereo not drawn) [Compound I-105] | 20% |
| CCN(C(=O)Cc1ccc(C)cc1)C(c1cnccc1C(F)(F)F)C(C)C (stereo not drawn) [I-101] | 10% |

Same assay, conditions: active ingredient 500 g/ha, applied 4th day after transplantation, visually observed 21st day after application, 0 = non-treated, 100 = complete kill

| SMILES | Growth controlling degree (%) Rice |
| --- | --- |
| Cc1ccc(C=CC(=O)N(C)C(c2cnccc2C(F)(F)F)C(C)C)cc1 (stereo not drawn) [I-181] | 10% |

System: japanese ribbon wapato
Assay: Test Example 3: paddy pot test, application under submerged conditions
Assay type: in vivo, Sagittaria pygniaea
Conditions: active ingredient 250 g/ha; submerged application at primary leaf stage; visually observed 14 days after application; 0 = non-treated, 100 = complete kill
Text: as §1, with “the” for “the other hand, paddy field soil was put into a 1/1,000,000 ha pot and puddled and leveled, and the depth of flooding water was from 3 to 4 cm. Next day, rice (var. Nihonbare) of 2 leaf stage was transplanted in a depth of 3 cm. On the 4th day after the transplantation, the compound of the present invention was applied in the same manner as described above. On the”

| SMILES | Growth controlling degree (%) Japanese ribbon wapato |
| --- | --- |
| CCN(C(=O)Cc1ccc(C)cc1)C(c1cnccc1C(F)(F)F)C(C)C (stereo not drawn) [I-101] | 40% |

Same assay, conditions: active ingredient 500 g/ha; submerged application at primary leaf stage; visually observed 14 days after application; 0 = non-treated, 100 = complete kill

| SMILES | Growth controlling degree (%) Japanese ribbon wapato |
| --- | --- |
| Cc1ccc(C=CC(=O)N(C)C(c2cnccc2C(F)(F)F)C(C)C)cc1 (stereo not drawn) [I-181] | 60% |

System: redroot pigweed
Assay: Test Example 2: soil surface treatment, upland pot test
Assay type: in vivo, Amaranthus retroflexus L.
Conditions: active ingredient 500 g/ha, observed 20th to 28th day
Text: (§2) Upland field soil was put into a 1/170,000 ha pot, and seed of various plants (barnyardgrass, crabgrass, green foxtail, redroot pigweed, prickly sida, velvetleaf, rice, wheat, corn, soybean) were sown. On the 1st day after the sowing, a wettable powder or emulsifiable concentrate having the compound of the present invention formulated in accordance with a usual formulation method, was weighed so that the active ingredient would be a predetermined amount, and diluted with water in an amount of 1,500 L/ha. The herbicide thus adjusted was applied by a small size sprayer for soil surface treatment. On the 20th to 28th days after the application of the herbicide, the growth of the respective plants was visually observed, and the herbicidal effects were evaluated by the growth controlling degrees (%) ranging from 0 (equivalent to the non-treated plot) to 100 (complete kill), whereby the results shown in Table 4, were obtained.

| SMILES | Growth controlling degree (%) Redroot pigweed |
| --- | --- |
| CC(C)C(c1cnccc1C(F)(F)F)N(C)C(=O)Cc1ccc(C(F)(F)F)cc1F (stereo not drawn) [Compound I-105] | 60% |
| Cc1ccc(C=CC(=O)N(C)C(c2cnccc2C(F)(F)F)C(C)C)cc1 (stereo not drawn) [I-181] | 40% |
| CCN(C(=O)Cc1ccc(C)cc1)C(c1cnccc1C(F)(F)F)C(C)C (stereo not drawn) [I-101] | 80% |

System: japanese bulrush
Assay: Test Example 3: paddy pot test, application under submerged conditions
Assay type: in vivo, Scirpus juncoides
Conditions: active ingredient 250 g/ha; submerged application at 0.5 leaf stage; visually observed 14 days after application; 0 = non-treated, 100 = complete kill
Text: as §1, with “the” for “the other hand, paddy field soil was put into a 1/1,000,000 ha pot and puddled and leveled, and the depth of flooding water was from 3 to 4 cm. Next day, rice (var. Nihonbare) of 2 leaf stage was transplanted in a depth of 3 cm. On the 4th day after the transplantation, the compound of the present invention was applied in the same manner as described above. On the”

| SMILES | Growth controlling degree (%) Japanese bulrush |
| --- | --- |
| CC(C)C(c1cnccc1C(F)(F)F)N(C)C(=O)Cc1ccc(C(F)(F)F)cc1F (stereo not drawn) [Compound I-105] | 80% |
| CCN(C(=O)Cc1ccc(C)cc1)C(c1cnccc1C(F)(F)F)C(C)C (stereo not drawn) [I-101] | 98% |

Same assay, conditions: active ingredient 500 g/ha; submerged application at 0.5 leaf stage; visually observed 14 days after application; 0 = non-treated, 100 = complete kill

| SMILES | Growth controlling degree (%) Japanese bulrush |
| --- | --- |
| Cc1ccc(C=CC(=O)N(C)C(c2cnccc2C(F)(F)F)C(C)C)cc1 (stereo not drawn) [I-181] | 98% |

System: barnyardgrass
Assay: as above
Assay type: in vivo, Echinochloa crus-galli L.
Conditions: active ingredient 250 g/ha; submerged application at 0.5 leaf stage; visually observed 14 days after application; 0 = non-treated, 100 = complete kill
Text: as §1, with “the” for “the other hand, paddy field soil was put into a 1/1,000,000 ha pot and puddled and leveled, and the depth of flooding water was from 3 to 4 cm. Next day, rice (var. Nihonbare) of 2 leaf stage was transplanted in a depth of 3 cm. On the 4th day after the transplantation, the compound of the present invention was applied in the same manner as described above. On the”

| SMILES | Growth controlling degree (%) Barnyardgrass |
| --- | --- |
| CC(C)C(c1cnccc1C(F)(F)F)N(C)C(=O)Cc1ccc(C(F)(F)F)cc1F (stereo not drawn) [Compound I-105] | 100% |
| CCN(C(=O)Cc1ccc(C)cc1)C(c1cnccc1C(F)(F)F)C(C)C (stereo not drawn) [I-101] | 100% |

Same assay, conditions: active ingredient 500 g/ha; submerged application at 0.5 leaf stage; visually observed 14 days after application; 0 = non-treated, 100 = complete kill

| SMILES | Growth controlling degree (%) Barnyardgrass |
| --- | --- |
| Cc1ccc(C=CC(=O)N(C)C(c2cnccc2C(F)(F)F)C(C)C)cc1 (stereo not drawn) [I-181] | 95% |

System: rice
Assay: Test Example 2: soil surface treatment, upland pot test
Assay type: in vivo, Oryza sativa L.
Conditions: active ingredient 500 g/ha, observed 20th to 28th day
Text: as §2

| SMILES | Growth controlling degree (%) Rice |
| --- | --- |
| CC(C)C(c1cnccc1C(F)(F)F)N(C)C(=O)Cc1ccc(C(F)(F)F)cc1F (stereo not drawn) [Compound I-105] | 10% |
| Cc1ccc(C=CC(=O)N(C)C(c2cnccc2C(F)(F)F)C(C)C)cc1 (stereo not drawn) [I-181] | 40% |
| CCN(C(=O)Cc1ccc(C)cc1)C(c1cnccc1C(F)(F)F)C(C)C (stereo not drawn) [I-101] | 0% |

System: prickly sida
Assay: as above
Assay type: in vivo, Sida spinosa L.
Conditions: active ingredient 500 g/ha, observed 20th to 28th day
Text: as §2

| SMILES | Growth controlling degree (%) Prickly sida |
| --- | --- |
| CC(C)C(c1cnccc1C(F)(F)F)N(C)C(=O)Cc1ccc(C(F)(F)F)cc1F (stereo not drawn) [Compound I-105] | 80% |
| CCN(C(=O)Cc1ccc(C)cc1)C(c1cnccc1C(F)(F)F)C(C)C (stereo not drawn) [I-101] | 30% |

System: barnyardgrass
Assay: as above
Assay type: in vivo, Echinochloa crus-galli L.
Conditions: active ingredient 500 g/ha, observed 20th to 28th day
Text: as §2

| SMILES | Growth controlling degree (%) Barnyardgrass |
| --- | --- |
| CC(C)C(c1cnccc1C(F)(F)F)N(C)C(=O)Cc1ccc(C(F)(F)F)cc1F (stereo not drawn) [Compound I-105] | 70% |
| Cc1ccc(C=CC(=O)N(C)C(c2cnccc2C(F)(F)F)C(C)C)cc1 (stereo not drawn) [I-181] | 30% |
| CCN(C(=O)Cc1ccc(C)cc1)C(c1cnccc1C(F)(F)F)C(C)C (stereo not drawn) [I-101] | 70% |

System: corn
Assay: as above
Assay type: in vivo, Zea mays L.
Conditions: active ingredient 500 g/ha, observed 20th to 28th day
Text: as §2

| SMILES | Growth controlling degree (%) Corn |
| --- | --- |
| CC(C)C(c1cnccc1C(F)(F)F)N(C)C(=O)Cc1ccc(C(F)(F)F)cc1F (stereo not drawn) [Compound I-105] | 30% |
| Cc1ccc(C=CC(=O)N(C)C(c2cnccc2C(F)(F)F)C(C)C)cc1 (stereo not drawn) [I-181] | 10% |
| CCN(C(=O)Cc1ccc(C)cc1)C(c1cnccc1C(F)(F)F)C(C)C (stereo not drawn) [I-101] | 10% |

System: green foxtail
Assay: as above
Assay type: in vivo, Setaria viridis L.
Conditions: active ingredient 500 g/ha, observed 20th to 28th day
Text: as §2

| SMILES | Growth controlling degree (%) Green foxtail |
| --- | --- |
| CC(C)C(c1cnccc1C(F)(F)F)N(C)C(=O)Cc1ccc(C(F)(F)F)cc1F (stereo not drawn) [Compound I-105] | 100% |
| Cc1ccc(C=CC(=O)N(C)C(c2cnccc2C(F)(F)F)C(C)C)cc1 (stereo not drawn) [I-181] | 95% |
| CCN(C(=O)Cc1ccc(C)cc1)C(c1cnccc1C(F)(F)F)C(C)C (stereo not drawn) [I-101] | 70% |

System: crabgrass
Assay: as above
Assay type: in vivo, Digitaria sanguinalis L.
Conditions: active ingredient 500 g/ha, observed 20th to 28th day
Text: as §2

| SMILES | Growth controlling degree (%) Crabgrass |
| --- | --- |
| CC(C)C(c1cnccc1C(F)(F)F)N(C)C(=O)Cc1ccc(C(F)(F)F)cc1F (stereo not drawn) [Compound I-105] | 98% |
| Cc1ccc(C=CC(=O)N(C)C(c2cnccc2C(F)(F)F)C(C)C)cc1 (stereo not drawn) [I-181] | 98% |

System: velvetleaf
Assay: as above
Assay type: in vivo, Abutilon theophrasti MEDIC.
Conditions: active ingredient 500 g/ha, observed 20th to 28th day
Text: as §2

| SMILES | Growth controlling degree (%) Velvetleaf |
| --- | --- |
| CC(C)C(c1cnccc1C(F)(F)F)N(C)C(=O)Cc1ccc(C(F)(F)F)cc1F (stereo not drawn) [Compound I-105] | 10% |
| Cc1ccc(C=CC(=O)N(C)C(c2cnccc2C(F)(F)F)C(C)C)cc1 (stereo not drawn) [I-181] | 30% |
| CCN(C(=O)Cc1ccc(C)cc1)C(c1cnccc1C(F)(F)F)C(C)C (stereo not drawn) [I-101] | 30% |

System: soybean
Assay: as above
Assay type: in vivo, Glycine max Merr.
Conditions: active ingredient 500 g/ha, observed 20th to 28th day
Text: as §2

| SMILES | Growth controlling degree (%) Soyabean |
| --- | --- |
| CC(C)C(c1cnccc1C(F)(F)F)N(C)C(=O)Cc1ccc(C(F)(F)F)cc1F (stereo not drawn) [Compound I-105] | 10% |
| Cc1ccc(C=CC(=O)N(C)C(c2cnccc2C(F)(F)F)C(C)C)cc1 (stereo not drawn) [I-181] | 0% |
| CCN(C(=O)Cc1ccc(C)cc1)C(c1cnccc1C(F)(F)F)C(C)C (stereo not drawn) [I-101] | 0% |
